Measured values reported in patent US20080108706A1, “Chemical resection of pancreas” (priority 1999, published 2008).

Legend:
exocrine pancreas = assay: Beagle study Part A: long-term toxicity and pancreatic function after (R,R)-(HO)2DEHSPM; type: in vivo, beagles
Method: (§1) Five male beagles approximately 6-8 months of age were obtained from Harlan Sprague Dawley. They were provided with food and water ad libitum and were allowed to acclimate to their new surroundings for two weeks. The animals were weighed prior to starting drug administration and were weighed once per week during the drug dosing period. A CBC and chemistry panel were performed every 1-2 weeks. The drug study was performed in two stages. In the first phase, three animals were given the drug at 2.15 mg/kg/day (dogs #516, 518 and 526). In the second phase, the other two dogs were given the drug at 4.3 mg/kg/day (dogs #490 and 494). In both experiments, the daily drug dose was divided and administered twice daily at 12-hour intervals.
(§2) The results of the long-term washout and subsequent toxicity of the (R,R)—(HO)2DEHSPM are summarized. Briefly, the drug was initially thought to be well tolerated at the 2.15 mg/kg/day dose. In order to compare the long-term washout of the (HO)2DEHSPM as compared to DEHSPM, it was decided not to sacrifice the animal (#516) until 75-days post-drug. […] Chronic pancreatitis or intestinal malabsorption was suspected. […] Inasmuch as the dog was imminently scheduled for sacrifice, no treatment was initiated. At necropsy 75-days post-drug, there was little, if any, abdominal fat and the animal's pancreas was atrophied as described below.
(§3) However, approximately 55-60 days post-drug, it was noted that although the dogs in the 4.3 mg/kg/day group (#490 and 494) were eating well and were bright, alert and responsive, they began losing weight (2 kg). […] In order to further confirm the exocrine pancreatic insufficiency, additional experiments were performed.
(§4) The two dogs (#490 and 494) were fed a prescription canned and dry dog food and were supplemented with Viokase, a pancreatic enzyme preparation, by mixing three tablets with food or by oral administration immediately before each feeding. The dogs were maintained on this regimen for approximately three weeks. During this time, their weight and blood chemistries were closely monitored. The Viokase supplementation was then stopped and the same parameters were again evaluated. One week after the Viokase administration had ceased, the animals were euthanized and tissues were taken for histology and for the determination of tissue polyamine levels.

[1] = as above; type: in vivo, beagles; details: for SGPT / alkaline phosphatase: approximately 60-days post-drug
Method: as §1, §2, §3, §4

[2] = tested on: Pancreatic Ductal Adenocarcinoma #03; assay: Evaluation against early stage pancreatic ductal adenocarcinoma #03 in BDF mice; type: in vivo
Source text: Male BDF mice (12 weeks old, weight approximately 28.9 g) were implanted with the pancreatic ductal cell carcinoma #03 3 days before beginning treatment with (HO)2DEHSPM.

[3] = dog #516, 2.15 mg/kg/day, approximately two months post-drug
[4] = dogs #490 and 494, 4.3 mg/kg/day, approximately 55-60 days post-drug
[5] = group 2, total dosage 240 mg/kg IV
[6] = group 4, total dosage 205 mg/kg IV
[7] = group 6, total dosage 102.5 mg/kg IV

For `CCNCC[C@@H](O)CNCCCCNC[C@H](O)CCNCC.Cl.Cl.Cl.Cl` [(R,R)-(HO)2DEHSPM, N^1,N^14-Diethyl-3(R) 12(R)-dihydroxyhomospermine tetrahydrochloride], the pancreas at necropsy (exocrine pancreas; 75-, 78-, 88- and 92-days post-treatment, all cases) was “Severe atrophy”, the “histopathology of pancreatic sample” value (exocrine pancreas; 75-days post-treatment sample) was “moderate to severe pancreatitis” and the “trypsin-like immunoreactivity (TLI)” value (exocrine pancreas; both dogs #490 and 494, 4.3 mg/kg/day, throughout Viokase and post-Viokase periods) was “below 2.0 ng/ml”. For the same compound, the “serum trypsin-like immunoreactivity test” value (exocrine pancreas; dog #516, 2.15 mg/kg/day) was “confirmed the presence of exocrine pancreatic insufficiency”, the pancreas at necropsy (exocrine pancreas; dog #516, 2.15 mg/kg/day, 75-days post-drug) was “atrophied” and the body weight (exocrine pancreas; [3]) was “begun losing weight”. For the same compound, the “fecal check (fat in stool)” value (exocrine pancreas; [3]) was “large amount of fat”, the “qualitative fecal fat and trypsin-like immunoreactivity” value (exocrine pancreas; dogs #490 and 494, 4.3 mg/kg/day) was “confirmed the presence of exocrine pancreatic insufficiency” and the weight loss (exocrine pancreas; [4]) was 2 kg. For the same compound, the pancreas at necropsy (exocrine pancreas; dogs #490 and 494, 4.3 mg/kg/day, one week after Viokase ceased) was “severely atrophied”, the “glucose levels (endocrine functionality)” value (exocrine pancreas; dogs #490 and 494, 4.3 mg/kg/day, throughout the experiment) was “normal” and the SGPT ([1]; dog #490, 4.3 mg/kg/day) was 1108 U/L. It also gave an alkaline phosphatase ([1]; dog #490, 4.3 mg/kg/day) of 542 U/L, an SGPT ([1]; dog #494, 4.3 mg/kg/day) of 776 U/L and an alkaline phosphatase ([1]; dog #494, 4.3 mg/kg/day) of 436 U/L. The “SGPT (routine chemistry panel)” value [1, 3] was “elevated”, the “SGPT (blood chemistries)” value [1, 4] was “elevated” and the “Percent Body Wt. Loss” value ([2]; group 2, tumor-bearing, IV QD 3, 4, 6-9, 14, 17, 18, total dosage 240 mg/kg) was 38%. For the same compound, the “Drug Deaths (days of death)” value ([2]; group 2, tumor-bearing, total dosage 240 mg/kg IV) was “none of the mice died”, the Comments [2, 5] was “Inactive” and the “Median Tumor Burden (mg) on day 18 (range)” value (from here on “Median Tumor Burden (mg)”) [2, 5] was 651 (138-1324) mg. The “Tumor Free on Day” value [2, 5] was 0/5, the T/C % ([2]; group 2, total dosage 240 mg/kg IV, tumor burden vs control) was 64% and the “Percent Body Wt. Loss” value ([2]; group 4, tumor-bearing, IV QD 3-18, total dosage 205 mg/kg) was “somewhat less dramatic”. For the same compound, the “Median Tumor Burden (mg)” value [2, 6] was 172 (63-965) mg, the “T-C” value [2, 6] was 9 days and the “Time to 1000 mg days (range)” value [2, 6] was 26.8 (18-28) days. The “Tumor Free on Day” value [2, 6] was 0/5, the “Log Kill” value ([2]; group 4, total dosage 205 mg/kg IV, Td = 3.5 days) was 0.8 and the “Percent Body Wt. Loss” value ([2]; group 6, tumor-bearing, IV QD 3-18, total dosage 102.5 mg/kg) was “no significant weight loss”. The Comments [2, 7] was “Inactive”, the “Median Tumor Burden (mg)” value [2, 7] was 617 (270-748) mg and the “Tumor Free on Day” value [2, 7] was 0/5.
